Values joined by “and” are separate entries in the source; they are usually repeats but may differ in a detail not shown here. Identical values can stand only once.
Test system: advanced solid tumors
Assay: Clinical activity by RECIST v1.1 (ORR, DoR, PFS, OS), phase 1b
Type: in vivo, human
Procedure: Clinical activity was assessed by objective response rate (ORR) according to Response Evaluation Criteria In Solid Tumors (RECIST) v1.1. Additional endpoints included duration of response (DoR), progression-free survival (PFS) and overall survival (OS) in phase 1b cohorts of patients based on diagnosis and tumor molecular alterations. An exploratory post-hoc analysis of patients with non-squamous NSCLC who experienced disease progression on prior checkpoint inhibitor (CPI) therapy was performed.
Disease status was evaluated according to RECIST v1.1 at baseline and every three cycles in phase 1, and every two cycles (6-week intervals) in phase 1b. Assessments were performed until objective disease progression was documented or until subsequent anti-cancer therapy started (see Supplementary Information [Sect. 1.3] for details).
DoR, PFS and OS were reported descriptively and summarized using the Kaplan–Meier method. DoR was defined as the time from first documentation of objective tumor response (complete response [CR] or partial response [PR]) until first documentation of disease progression per RECIST 1.1 or death (any cause). PFS was defined as the time from first dose of study treatment until progressive disease as defined by RECIST 1.1 or death (any cause). OS was defined as the time from first dose of study treatment until death (any cause).

[1] = NSCLC with molecular alterations (n = 53)
[2] = non-squamous NSCLC with prior CPI experience (n = 24)
[3] = phase 1b Chr4q12 amplification (n=16)
[4] = phase 1b NSCLC KIF5B-RET (n=13)
[5] = phase 1b NSCLC RET rearrangement (n=23)
[6] = phase 1b all molecular alterations (n=113)
[7] = phase 1b mITT overall (n = 161)
[8] = phase 1b overall RET rearrangement (n=31)

SMILES: COCCNCc1ccc(-c2cc3nccc(Oc4ccc(NC(=O)C5(C(=O)Nc6ccc(F)cc6)CC5)cc4F)c3s2)nc1 [sitravatinib, Sitravatinib]
- ORR (NSCLC with a molecular alteration of interest): 13.2%
- CR [1]: 0 n (%)
- DoR 6-month KM estimate (95% CI) [1]: 28.6 (4.1, 61.2) %
- DoR median (95% CI) [1]: 3.0 (1.8, 10.2) months
- NE (non-evaluable) [1]: 8 (15.1) n (%)
- ORR [1]: 7 (13.2) n (%)
- OS 12-month KM estimate (95% CI) [1]: 47.6 (32.4, 61.3) %
- OS median (95% CI) [1]: 11.6 (6.6, 18.2) months
- PD (progressive disease) [1]: 8 (15.1) n (%)
- PFS 6-month KM estimate (95% CI) [1]: 32.2 (19.2, 46.0) %
- PFS median (95% CI) [1]: 4.3 (2.9, 5.7) months
- PR [1]: 7 (13.2) n (%)
- ORR (non-squamous NSCLC with prior CPI experience (exploratory)): 4.2%
- CR [2]: 0 n (%)
- DoR 6-month KM estimate (95% CI) [2]: 100 (100, 100) %
- DoR median (95% CI) [2]: 10.2 (NE, NE) months
- NE (non-evaluable) [2]: 6 (25.0) n (%)
- ORR [2]: 1 (4.2) n (%)
- OS 12-month KM estimate (95% CI) [2]: 36.8 (16.5, 57.5) %
- OS median (95% CI) [2]: 5.2 (2.4, 33.8) months
- PD (progressive disease) [2]: 5 (20.8) n (%)
- PFS 6-month KM estimate (95% CI) [2]: 24.8 (7.8, 46.6) %
- PFS median (95% CI) [2]: 2.9 (1.5, 4.9) months
- PR [2]: 1 (4.2) n (%)
- ORR (overall phase 1b mITT population): 11.8%
- CR (phase 1b AXL alteration (n=7)): 0 n (%)
- NE (phase 1b AXL alteration (n=7)): 0 n (%)
- ORR (phase 1b AXL alteration (n=7)): 1 (14.3) n (%)
- OS 12-month KM estimate (95% CI) (phase 1b AXL alteration (n=7)): 26.8 (1.3, 67.0) %
- OS median (95% CI) (phase 1b AXL alteration (n=7)): 10.0 (2.2, NE) months
- PD (progressive disease) (phase 1b AXL alteration (n=7)): 2 (28.6) n (%)
- PFS 6-month KM estimate (95% CI) (phase 1b AXL alteration (n=7)): 71.4 (25.8, 92.0) %
- PFS median (95% CI) (phase 1b AXL alteration (n=7)): NR (1.2, NE)
- PR (phase 1b AXL alteration (n=7)): 1 (14.3) n (%)
- CR (phase 1b CBL alteration (n=31)): 0 n (%)
- DoR 6-month KM estimate (95% CI) (phase 1b CBL alteration (n=31)): 50.0 (0.6, 91.0) %
- DoR median (95% CI) (phase 1b CBL alteration (n=31)): NR (4.3, NE)
- NE (phase 1b CBL alteration (n=31)): 9 (29.0) n (%)
- ORR (phase 1b CBL alteration (n=31)): 2 (6.5) n (%)
- OS 12-month KM estimate (95% CI) (phase 1b CBL alteration (n=31)): 20.2 (7.4, 37.3) %
- OS median (95% CI) (phase 1b CBL alteration (n=31)): 5.0 (3.2, 9.9) months
- PD (progressive disease) (phase 1b CBL alteration (n=31)): 9 (29.0) n (%)
- PFS 6-month KM estimate (95% CI) (phase 1b CBL alteration (n=31)): 12.3 (3.1, 28.3) %
- PFS median (95% CI) (phase 1b CBL alteration (n=31)): 2.0 (1.3, 4.1) months
- PR (phase 1b CBL alteration (n=31)): 2 (6.5) n (%)
- CR (phase 1b CRPC (n=10)): 0 n (%)
- NE (phase 1b CRPC (n=10)): 3 (30.0) n (%)
- ORR (phase 1b CRPC (n=10)): 0 n (%)
- OS 12-month KM estimate (95% CI) (phase 1b CRPC (n=10)): 18.2 (0.8, 54.5) %
- OS median (95% CI) (phase 1b CRPC (n=10)): 10.1 (2.8, 23.2) months
- PD (progressive disease) (phase 1b CRPC (n=10)): 1 (10.0) n (%)
- PFS 6-month KM estimate (95% CI) (phase 1b CRPC (n=10)): 50.0 (11.1, 80.4) %
- PFS median (95% CI) (phase 1b CRPC (n=10)): 5.8 (2.1, NE) months
- PR (phase 1b CRPC (n=10)): 0 n (%)
- CR [3]: 0 n (%)
- NE [3]: 4 (25.0) n (%)
- ORR [3]: 0 n (%)
- OS 12-month KM estimate (95% CI) [3]: 35.2 (13.3, 58.2) %
- OS median (95% CI) [3]: 9.5 (3.6, 18.1) months
- PD (progressive disease) [3]: 3 (18.8) n (%)
- PFS 6-month KM estimate (95% CI) [3]: 23.8 (5.8, 48.5) %
- PFS median (95% CI) [3]: 2.7 (1.3, 4.4) months
- PR [3]: 0 n (%)
- CR (phase 1b MET alteration (n=17)): 0 n (%)
- DoR median (95% CI) (phase 1b MET alteration (n=17)): NR (3.0, NE)
- NE (phase 1b MET alteration (n=17)): 3 (17.6) n (%)
- ORR (phase 1b MET alteration (n=17)): 2 (11.8) n (%)
- OS 12-month KM estimate (95% CI) (phase 1b MET alteration (n=17)): 27.1 (8.4, 50.2) %
- OS median (95% CI) (phase 1b MET alteration (n=17)): 7.3 (3.5, 13.9) months
- PD (progressive disease) (phase 1b MET alteration (n=17)): 2 (11.8) n (%)
- PFS 6-month KM estimate (95% CI) (phase 1b MET alteration (n=17)): 16.4 (2.8, 40.0) %
- PFS median (95% CI) (phase 1b MET alteration (n=17)): 2.9 (1.9, 4.3) months
- PR (phase 1b MET alteration (n=17)): 2 (11.8) n (%)
- CR [4]: 0 n (%)
- DoR 6-month KM estimate (95% CI) [4]: 100.0 (100.0, 100.0) %
- DoR median (95% CI) [4]: 10.2 (NE, NE) months
- NE [4]: 3 (23.1) n (%)
- ORR [4]: 1 (7.7) n (%)
- OS 12-month KM estimate (95% CI) [4]: 79.5 (39.3, 94.5) %
- OS median (95% CI) [4]: 27.2 (10.9, 33.8) months
- PD (progressive disease) [4]: 3 (23.1) n (%)
- PFS 6-month KM estimate (95% CI) [4]: 36.4 (11.2, 62.7) %
- PFS median (95% CI) [4]: 5.7 (1.5, 13.5) months
- PR [4]: 1 (7.7) n (%)
- CR [5]: 0 n (%)
- DoR 6-month KM estimate (95% CI) [5]: 25.0 (0.9, 66.5) %
- DoR median (95% CI) [5]: 2.3 (1.8, 10.2) months
- NE [5]: 3 (13.0) n (%)
- ORR [5]: 4 (17.4) n (%)
- OS 12-month KM estimate (95% CI) [5]: 73.2 (46.6, 88.1) %
- OS median (95% CI) [5]: 27.2 (10.9, NE) months
- PD (progressive disease) [5]: 3 (13.0) n (%)
- PFS 6-month KM estimate (95% CI) [5]: 40.3 (19.5, 60.4) %
- PFS median (95% CI) [5]: 5.7 (3.0, 13.5) months
- PR [5]: 4 (17.4) n (%)
- CR (phase 1b RCC (n=38)): 0 n (%)
- DoR 6-month KM estimate (95% CI) (phase 1b RCC (n=38)): 100.0 (100.0, 100.0) %
- DoR median (95% CI) (phase 1b RCC (n=38)): 13.2 (6.8, NE) months
- NE (phase 1b RCC (n=38)): 3 (7.9) n (%)
- ORR (phase 1b RCC (n=38)): 8 (21.1) n (%)
- OS 12-month KM estimate (95% CI) (phase 1b RCC (n=38)): 60.1 (41.3, 74.6) %
- OS median (95% CI) (phase 1b RCC (n=38)): 29.3 (10.8, 33.4) months
- PD (progressive disease) (phase 1b RCC (n=38)): 4 (10.5) n (%)
- PFS 6-month KM estimate (95% CI) (phase 1b RCC (n=38)): 62.6 (43.5, 76.9) %
- PFS median (95% CI) (phase 1b RCC (n=38)): 9.5 (4.3, 11.7) months
- PR (phase 1b RCC (n=38)): 8 (21.1) n (%)
- CR [6]: 0 n (%)
- DoR 6-month KM estimate (95% CI) [6]: 53.0 (20.9, 77.3) %
- DoR median (95% CI) [6]: 7.0 (1.9, 15.2) months
- ORR [6]: 11 (9.7) n (%)
- OS 12-month KM estimate (95% CI) [6]: 36.1 (26.3, 45.9) %
- OS median (95% CI) [6]: 9.9 (7.1, 10.9) months
- PD (progressive disease) [6]: 23 (20.4) n (%)
- PFS 6-month KM estimate (95% CI) [6]: 28.5 (19.6, 38.0) %
- PFS median (95% CI) [6]: 3.6 (2.7, 4.4) months
- PR [6]: 11 (9.7) n (%)
- CR [7]: 0 n (%)
- DoR 6-month KM estimate (95% CI) [7]: 71.3% and 71.3 (44.0, 87.0) %
- DoR median (95% CI) [7]: 8.2 months and 8.2 (4.3, 16.6) months
- NE (non-evaluable) [7]: 26 (16.1) n (%)
- ORR [7]: 19 (11.8) n (%)
- OS 12-month KM estimate (95% CI) [7]: 41.3% and 41.3 (32.7, 49.6) %
- OS median (95% CI) [7]: 10.7 months and 10.7 (9.9, 11.9) months
- PD (progressive disease) [7]: 28 (17.4) n (%)
- PFS 6-month KM estimate (95% CI) [7]: 37.5% and 37.5 (29.2, 45.9) %
- PFS median (95% CI) [7]: 4.3 months and 4.3 (3.1, 5.6) months
- PR [7]: 19 (11.8) n (%)
- CR [8]: 0 n (%)
- DoR 6-month KM estimate (95% CI) [8]: 40.0 (5.2, 75.3) %
- DoR median (95% CI) [8]: 2.8 (1.8, 10.2) months
- NE [8]: 3 (9.7) n (%)
- ORR [8]: 5 (16.1) n (%)
- OS 12-month KM estimate (95% CI) [8]: 66.5 (43.3, 82.0) %
- OS median (95% CI) [8]: 18.2 (10.9, 33.8) months
- PD (progressive disease) [8]: 5 (16.1) n (%)
- PFS 6-month KM estimate (95% CI) [8]: 39.5 (21.8, 56.7) %
- PFS median (95% CI) [8]: 5.3 (3.0, 6.7) months
- PR [8]: 5 (16.1) n (%)

Source: article PMC9395446, “First-in-human phase 1/1b study to evaluate sitravatinib in patients with advanced solid tumors” (Investigational New Drugs, 2022)
